Reference: paper PMC5000617, “Antiproliferative and Pro-Apoptotic Effect of Novel Nitro-Substituted Hydroxynaphthanilides on Human Cancer Cell Lines” (International Journal of Molecular Sciences, 2016)

Assays:
THP-1 cells [1] = assay: WST-1 cell proliferation assay, THP-1; format: cell-based, human; details: for IC50: Homo sapiens, THP-1, WST-1, 24 h, 0.5-20 μM, mean ± SD; for effect on cell proliferation: THP-1, 0.5-20 μM, 24 h
Procedure: (§1) Initially, we examined the effect of six nitro-substituted hydroxynaphthanilides on the proliferation of human leukaemia and breast carcinoma cell lines, using Water Soluble Tetrazolium Salts-1 (WST-1) assay. For such analyses, THP-1 and MCF-7 cells were treated with the compounds at concentrations ranging from 0.5 to 20 μM for 24 h. […] The inhibitory effect of 2 and 6 was statistically significant (p < 0.001) starting from the concentration of 2.5 and 5 μM in THP-1 and MCF-7 cells, respectively. From the concentration-response curves, the IC50 values were determined.
(§2) THP-1 human monocytic leukemia cell line, MCF-7 human breast adenocarcinoma cells and 3T3-L1 mouse embryonic fibroblast were purchased from the European Collection of Cell Cultures (ECACC, Salisbury, UK). Cells were routinely tested for the absence of mycoplasma (Hoechst 33258 staining method). THP-1 cells were maintained in RPMI 1640 culture medium containing 2 mM L-glutamine; MCF-7 and 3T3-L1 cells were cultured in DMEM medium. All of the culture media were supplemented with 10% heat-inactivated FBS and antibiotics (100 U/mL penicillin and 100 μg/mL streptomycin). Cells were maintained at 37 °C in a humidified atmosphere containing 5% CO2.
(§3) Cell proliferation was evaluated using Cell Proliferation Reagent WST-1 (2-(4-iodophenyl)-3-(4-nitrophenyl)-5-(2,4-disulfophenyl)-2H-tetrazolium) (Roche Diagnostics, Mannheim, Germany) according to the manufacturer´s instructions. THP-1 (5 × 10^4 cells/100 μL culture medium per well), MCF-7 cells (1 × 10^4 cells/100 μL per well), and 3T3-L1 (2.5 × 10^3 cells/100 μL per well) were cultured in 96-well plates in triplicate. The measurement was performed using Synergy 2 Multi-Mode Microplate Reader (BioTek, Winooski, VT, USA) after 24 h incubation of cells with tested compounds dissolved in DMSO and subsequently in RPMI 1640 to final concentration ranging 0.5–20 μM in the assays. Cell viability was assessed by dye exclusion test. THP-1 (2 × 10^5 cells/mL per well) and MCF-7 cells (8 × 10^4 cells/mL per well) were incubated in 24-well plates with the indicated concentrations of compounds for 24 h. The number of viable cells was determined using hemocytometer after their staining with a solution of erythrosin B (0.1% erythrosin B (w/v) in PBS). The assays were conducted in triplicate. The IC50 and LC50 values were calculated from fitted concentration-response curves using GraphPad Prism 5.00 software (GraphPad Software, San Diego, CA, USA).

MCF-7 cells [2] = assay: WST-1 cell proliferation assay, MCF-7; format: cell-based, human; details: for IC50: Homo sapiens, MCF7, WST-1, 24 h, 0.5-20 μM, mean ± SD; for effect on cell proliferation: MCF-7, 0.5-20 μM, 24 h
Procedure: as §1, §2, §3

3T3-L1 cells = assay: WST-1 cell proliferation assay, 3T3-L1 non-tumour cells; format: cell-based, mouse; details: for IC50: Mus musculus, 3T3-L1, WST-1, 24 h, non-tumour cells, mean ± SD; for effect on cell proliferation: 3T3-L1, 24 h
Procedure: as §2, §3

[3] = Erythrosin B dye exclusion viability test, THP-1; format: cell-based; details: human, THP-1 cells; erythrosin B exclusion test, 24 h, mean ± SD; read-out: THP-1 LC50
Procedure: (§4) Subsequently, for the comparison of the antiproliferative and cytotoxic effects we assessed the cell viability after 24 h treatment with compounds 1–6 in both tumour cell lines using the dye exclusion test.
as §2, §3

[4] = Erythrosin B dye exclusion viability test, MCF-7; format: cell-based; details: human, MCF-7 cells; erythrosin B exclusion test, 24 h, mean ± SD; read-out: MCF-7 LC50
Procedure: as §4, §2, §3

[5] = Annexin V-FITC/PI apoptosis assay by flow cytometry, THP-1; format: cell-based, human; details: human, THP-1 cells, THP-1, 5 μM, representative dot plot, read-out: quadrant I: viable cells
Procedure: (§5) Staining of cells by Annexin V-FITC conjugate reflects the externalization of phosphatidylserine on the outer surface of the cell membrane as one of the early indicators of apoptosis.
(§6) Early and late stages of apoptosis were detected using Annexin V-FITC Kit—Apoptosis Detection Kit faccording to the manufacturer´s instructions. […] At each time-point of incubation (12, 18, and 24 h) the cells were washed with ice-cold PBS prior to being resuspended at a concentration of 5 × 10^6 cells/mL in a total volume of 100 μL of 1× binding buffer. Annexin V-FITC solution (final concentration 0.25 μg/mL) and PI (final concentration 12.5 μg/mL) were added to each sample; the cell suspension was kept on ice and incubated for 15 min in the dark. After that, the analysis was carried out by flow cytometry. The data were evaluated using Kaluza Flow Cytometry Analysis 1.2. Per sample, a total number of 2 × 10^4 cells were analysed.

THP-1 cells [6] = assay: as above; format: cell-based, human; details: mean
Procedure: as §5, §6

THP-1 cells [7] = assay: Erythrosin B dye exclusion viability test, THP-1; format: cell-based
Procedure: as §4, §2, §3

MCF-7 cells [8] = assay: Erythrosin B dye exclusion viability test, MCF-7; format: cell-based
Procedure: as §4, §2, §3

THP-1 cells [9] = assay: Flow cytometric cell cycle analysis (PI), THP-1; format: cell-based, human; details: THP-1, 24 h
Procedure: (§7) In order to determine at which stage of the cell cycle these compounds induce cell growth inhibition, flow cytometric analyses of cell cycle profiles in THP-1 and MCF-7 cell lines were performed. […] Therefore, THP-1 and MCF-7 cells were treated for 24 h with the compounds at concentrations of 2.5, 5, and 10 μM, respectively. In general, we detected a qualitatively similar effect on the distribution of cells in cell cycle phases following the treatment with compounds 2 and 6 in both leukaemia and breast carcinoma cells. […] This was in concert with a simultaneous decrease in the number of cells observed in the S phase compared to the drug-free control, while the percentage of cells in the G2/M phase remained unchanged.
(§8) THP-1 and sub-confluent MCF-7 cells were treated and subsequently incubated with indicated concentrations of compounds 2 and 6 for 24 h. After the incubation, cells were washed twice in PBS (pH 7.4), fixed in 70% ethanol and stored at −20 °C overnight. Fixed cells were collected by centrifugation, and supernatant was discarded. The cell pellet was washed twice with PBS and incubated with RNaseA (0.02 mg/mL) and 0.05% (v/v) Triton X-100 in PBS for 30 min at 37 °C. After the nuclei staining with propidium iodide (PI) (0.04 mg/mL), the cell cycle distribution was analysed using a flow cytometer Cell Lab Quanta SC (Beckman Coulter, Brea, CA, USA). The quantification of cell cycle distribution was carried out using software MultiCycle AV (Phoenix Flow System, San Diego, CA, USA). A total number of 2 × 10^4 cells was analysed per sample.

MCF-7 cells [10] = assay: Flow cytometric cell cycle analysis (PI), MCF-7; format: cell-based, human; details: MCF-7, 24 h
Procedure: as §7, §8

cyclin E1 [11] = assay: Western blot of cyclin E1 in THP-1 cells; format: cell-based, human; details: THP-1, 24 h
Procedure: (§9) Additionally, the cell cycle analysis allows determining the presence of a subdiploid cell population as a characteristic marker of cells with fractional DNA content. A significant increase (p < 0.001) of the sub-G1 peak was found only after the treatment with 5 µM of compound 2 in THP-1 cells, where an approximately eight-fold increase was observed compared to the drug-free control (Figure 4).
(§10) For Western blotting, cells were washed with PBS and lysed in lysis buffer (100 mM Tris-HCl, pH = 6.8; 20% glycerol; 1% SDS) containing protease and phosphatase inhibitor cocktails. Protein concentration was measured using Roti®-Quant universal (Carl Roth, Karsruhe, Germany) according to the manufacturer’s instructions. Cell lysates were supplemented with bromophenol blue (final concentration 0.01% (w/v)) and β-mercaptoethanol (final concentration 1% (v/v)) prior to being heated for 5 min at 95 °C. Equal amounts of protein (10 μg) were loaded into a 12% polyacrylamide gel, separated by SDS-polyacrylamide gel electrophoresis and subsequently electrotransferred onto nitrocellulose membranes. Reversible Ponceau S. staining was performed to assess equal sample loading. Then, the membranes were blocked with 5% non-fat dry milk in TBST (10 mM Tris-HCl pH = 7.5, 150 mM NaCl, 0.1% (v/v) Tween-20) and appropriate primary and secondary antibodies were used for immunodetection. The proteins were visualized by ECL Plus reagent according to the manufacturer’s instructions. The intensity of bands was semi-quantitatively analysed using the ImageJ software (National Institute of Mental Health, Bethesda, MD, USA).

cyclin E1 [12] = assay: Western blot of cyclin E1 in MCF-7 cells; format: cell-based, human; details: MCF-7, 24 h
Procedure: as §9
as §10, with “Then, the membranes were blocked with 5% non-fat dry milk in TBST (10 mM Tris-HCl pH = 7.5, 150 mM NaCl, 0.1% (v/v) Tween-20) and appropriate primary and secondary antibodies were used for immunodetection. The proteins were visualized by ECL Plus reagent according to the manufacturer’s instructions.” left out

cyclin B1 [13] = assay: Western blot of cyclin B1 in THP-1 cells; format: cell-based, human; details: THP-1, 24 h
Procedure: as §9
as §10, with “Then, the membranes were blocked with 5% non-fat dry milk in TBST (10 mM Tris-HCl pH = 7.5, 150 mM NaCl, 0.1% (v/v) Tween-20) and appropriate primary and secondary antibodies were used for immunodetection. The proteins were visualized by ECL Plus reagent according to the manufacturer’s instructions.” left out

cyclin B1 [14] = assay: Western blot of cyclin B1 in MCF-7 cells; format: cell-based, human; details: MCF-7, 24 h
Procedure: as §9
as §10, with “Then, the membranes were blocked with 5% non-fat dry milk in TBST (10 mM Tris-HCl pH = 7.5, 150 mM NaCl, 0.1% (v/v) Tween-20) and appropriate primary and secondary antibodies were used for immunodetection. The proteins were visualized by ECL Plus reagent according to the manufacturer’s instructions.” left out

Row | Structure (SMILES) | IC50 (THP-1 cells [1]) | effect on cell proliferation (THP-1 cells [1]) | IC50 (MCF-7 cells [2]) | effect on cell proliferation (MCF-7 cells [2]) | IC50 (3T3-L1 cells) | CC50 at 24 h [3] | CC50 at 24 h [4] | also measured
1 | O=C(Nc1cccc([N+](=O)[O-])c1)c1c(O)ccc2ccccc12 [Compound 5] | > 20 µM | proliferation of THP-1 cells was not affected | > 20 µM | a 50% reduction in cell growth was not achieved | > 20 µM | > 20 µM | > 20 µM | 
2 | CC[C@@]1(O)C(=O)OCc2c1cc1n(c2=O)Cc2cc3ccccc3nc2-1 [camptothecin, reference compound] |  |  |  |  |  |  |  | viability at 12 h, 5 µM ([5]; 12 h): 55.8%; viability at 18 h, 5 µM ([5]; 18 h): 53.8%; viability at 24 h, 5 µM ([5]; 24 h): 50.9%; early apoptotic cells (THP-1 cells [6]; THP-1, 5 µM, 12 h): 21.28%; late apoptotic cells (THP-1 cells [6]; THP-1, 5 µM, 12 h): 24.10%; early apoptotic cells (THP-1 cells [6]; THP-1, 5 µM, 24 h): 9.65%; late apoptotic cells (THP-1 cells [6]; THP-1, 5 µM, 24 h): 33.08%
3 | O=C(Nc1ccccc1[N+](=O)[O-])c1cc2ccccc2cc1O [Compound 1] | > 20 µM | neither compound 1 nor 4 (both ortho-substituted derivatives) was able to induce the inhibition of cell growth | > 20 µM | neither compound 1 nor 4 (both ortho-substituted derivatives) was able to induce the inhibition of cell growth | > 20 µM | > 20 µM | > 20 µM | 
4 | N.N.[Cl][Pt][Cl] [cisplatin, reference compound] |  |  |  |  |  |  |  | early apoptotic cells (THP-1 cells [6]; THP-1, 10 µg/mL, 24 h): 44.38%
5 | O=C(Nc1ccc([N+](=O)[O-])cc1)c1cc2ccccc2cc1O [Compound 3] | 1.05 ± 0.199 µM | inhibit cell growth in both cell lines in a dose-dependent manner | 1.65 ± 0.938 µM | inhibit cell growth in both cell lines in a dose-dependent manner | 4.41 ± 0.293 µM | 3.44 ± 1.21 µM | 12.9 ± 1.98 µM | effect on cell proliferation (3T3-L1 cells): affected the proliferation of 3T3-L1 cells in a dose-dependent manner; LC50 compared to IC50 (THP-1 cells [7]): 2–3 fold; LC50 in comparison with IC50 (MCF-7 cells [8]; MCF-7 cells): approximately seven-fold
6 | O=C(Nc1ccccc1[N+](=O)[O-])c1c(O)ccc2ccccc12 [Compound 4] | > 20 µM | neither compound 1 nor 4 (both ortho-substituted derivatives) was able to induce the inhibition of cell growth | > 20 µM | neither compound 1 nor 4 (both ortho-substituted derivatives) was able to induce the inhibition of cell growth | > 20 µM | > 20 µM | > 20 µM | 
7 | O=C(Nc1ccc([N+](=O)[O-])cc1)c1c(O)ccc2ccccc12 [Compound 6, 2-hydroxy-N-(4-nitrophenyl)-naphthalene-1-carboxamide] | 5.8 ± 0.37 µM | inhibit cell growth in both cell lines in a dose-dependent manner | 5.23 ± 0.802 µM | inhibit cell growth in both cell lines in a dose-dependent manner | > 20 µM | 9.98 ± 0.349 µM | > 20 µM | concentration from which the inhibitory effect on proliferation was statistically significant (p < 0.001) (THP-1 cells [1]; THP-1, 24 h): 2.5 µM; concentration from which the inhibitory effect on proliferation was statistically significant (p < 0.001) (MCF-7 cells [2]; MCF-7, 24 h): 5 µM; effect on cell proliferation (3T3-L1 cells): did not decrease cell growth at any of concentrations used; LC50 compared to IC50 (THP-1 cells [7]): 2–3 fold; effect on cell viability (MCF-7 cells [8]; MCF-7, 24 h, vs control): Neither compound 2 nor 6 reduced cell viability under 50%; distribution of cells in cell cycle phases (THP-1 cells [9]): induced accumulation of cells in G1 phase; sub-G1 / sub-diploid population (THP-1 cells [9]): no significant increase of sub-diploid population; distribution of cells in cell cycle phases (MCF-7 cells [10]): induced accumulation of cells in G1 phase; sub-G1 / sub-diploid population (MCF-7 cells [10]): no significant increase of sub-diploid population; expression of cyclin E1 (cyclin E1 [11]): dose-dependent decrease in expression of cyclin E1; levels of cyclin E1 low molecular weight (LMW E1) isoform (cyclin E1 [11]): more pronounced reduction of LMW E1 isoform levels; expression of cyclin E1 (cyclin E1 [12]): dose-dependent decrease in expression of cyclin E1; total protein levels of cyclin B1 (cyclin B1 [13]): total protein levels of cyclin B1 were not changed; total protein levels of cyclin B1 (cyclin B1 [14]): total protein levels of cyclin B1 were not changed
